For 6 compounds, GI50 and TGI results are on record in PubChem BioAssay (NCI).

Where “and” joins values, the source holds several entries; their conditions need not be identical. Equal values may be shown once.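 Five compound concentrations were applied to cells in 96-well plates for 48 hours; endpoints were derived by simple linear interpolation of the resulting dose-response curve. GI50 = concentration required for 50% inhibition of growth. TGI denotes the concentration required for complete inhibition of growth.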

What all share (assay): NCI-60 cell line screen, 48 h
Test [1] deals with 786-0 renal.
Test [2] has as its system CAKI-1 renal.
In test [3] the test system is HCC-2998 colon.
Test [4] relates to HOP-92 NSCLC.
In test [5] the test system is MALME-3M melanoma.
Test [6] relates to MOLT-4 leukemia.
For test [7], the system named is NCI-H23 lung.
For test [8], the system named is NCI-H522 lung.
Test [9] relates to OVCAR-8 ovarian.
Test [10] relates to TK-10 renal.

Regarding `COC(=O)CCc1cc(OC)c2c(c1)C(C(=O)OC)C(c1ccc(OC)c(OC)c1)O2` (stereo not given), the GI50 in test [1] is > 100 µM and 40.9 µM; in test [2] it was > 100 µM and 45.5 µM; in test [5], > 100 µM and 20 µM; in test [6], 65.1 µM and 7.2 µM; in test [8] it was > 100 µM and 19.9 µM; in [9], > 100 µM and 39.6 µM. The TGI in test [1], in [2], in [3], in test [4], in test [5] and in [6] was above 100 µM throughout. Besides, the TGI in test [7], in test [8], in [9] and in test [10] was above 100 µM each time.
With `O=c1c(Oc2ccc(F)cc2F)cc2cnc(NC3CCOCC3)nc2n1C1CCS(=O)(=O)CC1`, the GI50 in [1], in test [2], in test [3], in test [4], in test [5] and in [6] was above 25 µM in each case. Besides, the GI50 in [7], in test [8], in test [9] and in [10] was above 25 µM each time. Further, the TGI in [1], in test [2], in test [3], in test [4], in test [5] and in test [6] was above 25 µM in each case. The TGI in [7], in [8], in test [9] and in [10] was above 25 µM in each case.
Take `O=C(/C=C/c1ccc(F)cc1)c1ccc(Cl)cc1Cl`: the GI50 is 45.2 µM in [1]; 33 µM in [2]; 52.7 µM in test [3]; 30 µM in [4]; above 100 µM in [5]; 26.2 µM in test [6]. For the same compound, the GI50 in test [7] was 37.2 µM; in test [8] it was 47.7 µM; in test [9], 33.7 µM; in [10] it was 86.8 µM. The TGI in [1] was above 100 µM; in test [2], 89.6 µM; in test [3] it was above 100 µM; in [4] it was 80.8 µM; in [5] it was above 100 µM; in test [6] it was 63.9 µM. The TGI in test [7], in test [8], in test [9] and in [10] was above 100 µM throughout.
Take `COc1ccc(CN(C)c2ccc(CO)c(Cl)c2)cc1`: the GI50 was 13.7 µM in test [1]; 3 µM in test [2]; 13.7 µM in test [3]; 4.7 µM in test [4]; 21 µM in [5]; 25.8 µM in test [6]. Moreover, the GI50 in test [7] is 12.9 µM; in test [8], 22.4 µM; in test [9] it was 19.6 µM; in test [10], 0.179 µM. For the same compound, the TGI was above 66.4 µM in [1]; above 64.1 µM in test [2]; 71.2 µM in test [3]; 45.3 µM in test [4]; 65.6 µM in [5]; above 86.7 µM in test [6]. Besides, the TGI in test [7] was above 100 µM; in [8], above 80.7 µM; in [9], above 100 µM; in [10], 0.793 µM.
Regarding `COc1ccc(/C=N\NC(=O)CN2CCN(c3cc4c(cc3F)c(=O)c(C(=O)N/N=C/c3ccc(OC)c(OC)c3)cn4C3CC3)CC2)cc1OC`, the GI50 in test [1] was 4.83 µM; in [2] it was 9.49 µM; in [3] it was 3.52 µM; in [4], 2.25 µM; in test [5], 1.81 µM; in test [6], 3.56 µM. Also, the GI50 in test [7] is 3.1 µM; in test [8], 3.66 µM; in test [9] it was 3.81 µM; in [10], 23.6 µM. Besides, the TGI in test [1] is 22.6 µM; in test [2] it was 91.9 µM; in test [3], 12.7 µM; in test [4], 6.9 µM; in [5], 3.62 µM; in [6], above 100 µM. Further, the TGI in [7] is 10.8 µM; in test [8], above 100 µM; in test [9], 81.1 µM; in [10] it was above 100 µM.
As to `O=c1ccn(C2OC(CO)C(O)C2F)c(=O)[nH]1` (stereo not given), the GI50 in test [1] is above 1000 µM; in [2] it was above 88.9 µM; in test [4], above 1000 µM; in test [5], above 1000 µM; in test [6] it was above 1000 µM; in test [7] it was above 1000 µM. Also, the GI50 in [8], in [9] and in test [10] was above 1000 µM throughout. For the same compound, the TGI is above 1000 µM in test [1]; above 100 µM in test [2]; above 100 µM in test [3]; above 1000 µM in test [4]; above 1000 µM in test [5]; above 1000 µM in test [6]. Moreover, the TGI in test [7], in test [8], in test [9] and in test [10] was above 1000 µM throughout.
